Data from patent publication US8680159B2, “Bradykinin 1 receptor modulating compounds” (Gruenenthal GmbH, priority 2010, dated 2014).

Each molecule was assayed against T1, B1R receptor of the rat (CHO K1 cells stably transfected with the B1R gene of the rat) (Rattus norvegicus, UniProt P97583) (assay: Functional study on the bradykinin receptor 1 (B1R), Ca2+ fluorescence (Fluo-4) FLIPR/Novostar assay, rB1R cells). Details: 10 μM.
T1 construct: expressed in transfected cells; host or cells: CHO K1 cells (Chinese hamster ovary), stably transfected
T1 sequence (P97583 1-337): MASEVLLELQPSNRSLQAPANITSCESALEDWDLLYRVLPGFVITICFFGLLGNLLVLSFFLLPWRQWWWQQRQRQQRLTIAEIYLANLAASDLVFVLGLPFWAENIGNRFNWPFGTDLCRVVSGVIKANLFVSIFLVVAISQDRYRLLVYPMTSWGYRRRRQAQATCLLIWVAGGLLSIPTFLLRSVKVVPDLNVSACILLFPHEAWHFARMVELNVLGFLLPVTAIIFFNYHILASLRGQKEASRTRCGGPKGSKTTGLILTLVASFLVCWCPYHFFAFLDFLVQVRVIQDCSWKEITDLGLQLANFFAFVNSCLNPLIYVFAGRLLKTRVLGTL
Type: cell-based
Experimental: The agonistic or antagonistic action of substances can be quantified on the bradykinin receptor 1 (B1R) of the species human and rat using ectopically expressing cell lines (CHO K1 cells) and with the aid of a Ca^2+-sensitive dye (Fluo-4) using a fluorescent imaging plate reader (FLIPR). The indication in % activation is based on the Ca^2+ signal after addition of Lys-Des-Arg^9-bradykinin (0.5 nM) or Des-Arg^9-bradykinin (100 nM). Antagonists lead to suppression of the Ca^2+ influx after the addition of the agonist. % Inhibition compared with the maximum achievable inhibition is indicated.
The agonistic or antagonistic action of substances can be determined on the bradykinin receptor 1 (B1R) of the species human and rat using the following assay. According to this assay, the increase in intracellular Ca^2+ following administration of a B1R agonist is quantified with the aid of a Ca^2+-sensitive dye (Fluo-4 type, Molecular Probes Europe BV, Leiden, Netherlands) using a Fluorescent Imaging Plate Reader (FLIPR, Molecular Devices, Sunnyvale, USA) and/or using a Novostar (BMG Labtech GmbH, Offenburg, Germany).
Chinese hamster ovary cells (CHO K1 cells) which have been stably transfected with the human B1R gene (hB1R cells) or with the B1R gene of the rat (rB1R cells) are used. For functional studies, the cells are plated out on black 96-well plates having a clear base (BD Biosciences, Heidelberg, Germany or Greiner, Frickenhausen, Germany) in a density of 20,000-35,000 cells/well. The cells are left overnight at 37° C. and with 5% CO2 in culture medium (hB1R cells: Nutrient Mixture Ham's F12, Gibco Invitrogen GmbH, Karlsruhe, Germany or DMEM, Sigma-Aldrich, Taufkirchen, Germany; rB1R cells: D-MEM/F12, Gibco Invitrogen GmbH, Karlsruhe, Germany), with 10 vol. % FBS (fetal bovine serum, Gibco Invitrogen GmbH, Karlsruhe, Germany or PAN Biotech GmbH, Aidenbach, Germany). On the following day, the cells are loaded for 60 minutes at 37° C. with 2.13 μM Fluo-4 (Molecular Probes Europe BV, Leiden, Netherlands) in HBSS buffer (Hank's buffered saline solution, Gibco Invitrogen GmbH, Karlsruhe, Germany) […] (Sigma-Aldrich, Taufkirchen, Germany) and 10 mM HEPES (Sigma-Aldrich, Taufkirchen, Germany). The plates are then washed twice with HBSS buffer, and HBSS buffer additionally containing 0.1% BSA (bovine serum albumin; Sigma-Aldrich, Taufkirchen, Germany), 5.6 mM glucose and 0.05% gelatin (Merck KGaA, Darmstadt, Germany) is added to the plates. After incubation for a further 20 minutes at room temperature, the plates are inserted into the FLIPR or Novostar for Ca^2+ measurement. Alternatively, washing is carried out with buffer A (15 mM HEPES, 80 mM NaCl, 5 mM KCl, 1.2 mM CaCl2, 0.7 mM MgSO4, 2 g/l glucose, 2.5 mM probenecid) followed by loading with buffer A with added 2.5 μM Fluo-4 and 0.025% Pluronic F127 (Sigma-Aldrich, Taufkirchen, Germany). The cells are then washed twice with buffer A and incubated for 30 minutes at room temperature with buffer A additionally containing 0.05% BSA and 0.05% gelatin and are then inserted into the FLIPR or Novostar for Ca^2+ measurement. The Ca^2+-dependent fluorescence is measured before and after the addition of substances (λex=488 nm, λem=540 nm). Quantification is carried out by measuring the highest fluorescence intensity (FC, fluorescence counts) over time.
The FLIPR protocol consists of 2 substance additions, which are pipetted in the FLIPR. In the case of measurements using the Novostar, only the second substance addition is pipetted in the device. Both devices measure the fluorescence intensity over time. Test substances (10 μM) are first pipetted onto the cells and the intracellular Ca^2+ increase is compared with the control (hB1R: Lys-Des-Arg^9-bradykinin>=50 nM; rB1R: Des-Arg^9-bradykinin>=1 μM). This gives the % activation, based on the Ca^2+ signal after addition of Lys-Des-Arg^9-bradykinin (>=50 nM) or Des-Arg^9-bradykinin (>=1 μM). […]

Q: With `CN(C(=O)c1ccc2c(c1)C(NC(=O)c1c(Cl)cccc1C(F)(F)F)CCC2)C1CCN(c2ccncc2)CC1` (stereo not shown) [CC_H-249, 8-[[2-Chloro-6-(trifluoromethyl)-benzoyl]amino]-N-methyl-N-(1-pyridin-4-yl-piperidin-4-yl)-5,6,7,8-tetrahydro-naphthalene-2-carboxylic acid amide] as the molecule, how does the “% Inhibition (r-B1R) at 10 μM” value read?
A: The value was 110%.

Same assay, conditions: CHO-K1, 10 μM, read-out: % Inhibition (r-B1R) at 10 μM

Q: `CN(C(=O)c1ccc2c(c1)C(NC(=O)c1cc(C(F)(F)F)ccc1Cl)CCC2)C1CCN(c2ccncc2)CC1` (stereo not shown) [CC_H-247, 8-[[2-Chloro-5-(trifluoromethyl)-benzoyl]amino]-N-methyl-N-(1-pyridin-4-yl-piperidin-4-yl)-5,6,7,8-tetrahydro-naphthalene-2-carboxylic acid amide] was tested. Which inhibition at 10 µM did it give?
A: Its inhibition at 10 µM is 112%.

Q: How did the inhibition at 10 µM turn out when `Cc1ccc(F)c(C(=O)NC2CCCc3ccc(C(=O)N(C)C4CCN(c5ccncc5)CC4)cc32)c1Cl` (stereo not shown) [CC_H-248, 8-[(2-Chloro-6-fluoro-3-methyl-benzoyl)amino]-N-methyl-N-(1-pyridin-4-yl-piperidin-4-yl)-5,6,7,8-tetrahydro-naphthalene-2-carboxylic acid amide] was run?
A: The inhibition at 10 µM was 111%.

Q: Which inhibition at 10 µM does the source give for `CN(C(=O)c1ccc2c(c1)C(NC(=O)C1CC1)CCC2)C1CCN(c2ccncc2)CC1` (stereo not shown) [CC_H-250, 8-(Cyclopropanecarbonylamino)-N-methyl-N-(1-pyridin-4-yl-piperidin-4-yl)-5,6,7,8-tetrahydro-naphthalene-2-carboxylic acid amide] here?
A: The inhibition at 10 µM was 103%.

Q: For `CN(C(=O)c1ccc2c(c1)C(NC(=O)CC(C)(C)C)CCC2)C1CCN(c2ccncc2)CC1` (stereo not shown) [CC_H-251, 8-(3,3-Dimethyl-butanoylamino)-N-methyl-N-(1-pyridin-4-yl-piperidin-4-yl)-5,6,7,8-tetrahydro-naphthalene-2-carboxylic acid amide], which inhibition at 10 µM is on record?
A: The inhibition at 10 µM was 111%.

Q: How did the inhibition at 10 µM turn out when `COCC(=O)NC1CCCc2ccc(C(=O)N(C)C3CCN(c4ccncc4)CC3)cc21` (stereo not shown) [CC_H-252, 8-[(2-Methoxy-acetyl)amino]-N-methyl-N-(1-pyridin-4-yl-piperidin-4-yl)-5,6,7,8-tetrahydro-naphthalene-2-carboxylic acid amide] was run?
A: Its inhibition at 10 µM is 107%.

Q: For `CC(=O)NC1CCCc2ccc(C(=O)N(C)C3CCN(c4ccncc4)CC3)cc21` (stereo not shown) [CC_H-253, 8-Acetylamino-N-methyl-N-(1-pyridin-4-yl-piperidin-4-yl)-5,6,7,8-tetrahydro-naphthalene-2-carboxylic acid amide], which inhibition at 10 µM is on record?
A: The inhibition at 10 µM was 110%.

Q: `CN(C(=O)c1ccc2c(c1)C(NC(=O)c1cccc(C(F)(F)F)c1Cl)CCC2)C1CCN(c2ccncc2)CC1` (stereo not shown) [CC_H-254, 8-[[2-Chloro-3-(trifluoromethyl)-benzoyl]amino]-N-methyl-N-(1-pyridin-4-yl-piperidin-4-yl)-5,6,7,8-tetrahydro-naphthalene-2-carboxylic acid amide] was tested. Which inhibition at 10 µM did it give?
A: Its inhibition at 10 µM is 111%.

Q: `CN(C(=O)c1ccc2c(c1)C(NC(=O)Nc1ccccc1Cl)CCC2)C1CCN(c2ccncc2)CC1` (stereo not shown) [CC_H-255, 8-[[(2-Chlorophenyl)-carbamoyl]amino]-N-methyl-N-(1-pyridin-4-yl-piperidin-4-yl)-5,6,7,8-tetrahydro-naphthalene-2-carboxylic acid amide] was tested. Which inhibition at 10 µM did it give?
A: Its inhibition at 10 µM is 104%.

Q: Which inhibition at 10 µM does the source give for `CN(C(=O)c1ccc2c(c1)C(NC(=O)Nc1cccc(Cl)c1)CCC2)C1CCN(c2ccncc2)CC1` (stereo not shown) [CC_H-256, 8-[[(3-Chlorophenyl)-carbamoyl]amino]-N-methyl-N-(1-pyridin-4-yl-piperidin-4-yl)-5,6,7,8-tetrahydro-naphthalene-2-carboxylic acid amide] here?
A: The inhibition at 10 µM was 96%.

Q: For `CN(C(=O)c1ccc2c(c1)C(NC(=O)Nc1c(Cl)cccc1Cl)CCC2)C1CCN(c2ccncc2)CC1` (stereo not shown) [CC_H-257, 8-[[(2,6-Dichloro-phenyl)-carbamoyl]amino]-N-methyl-N-(1-pyridin-4-yl-piperidin-4-yl)-5,6,7,8-tetrahydro-naphthalene-2-carboxylic acid amide], which inhibition at 10 µM is on record?
A: The inhibition at 10 µM was 107%.

Q: For `CN(C(=O)c1ccc2c(c1)C(NC(=O)Nc1cccc(Cl)c1Cl)CCC2)C1CCN(c2ccncc2)CC1` (stereo not shown) [CC_H-258, 8-[[(2,3-Dichloro-phenyl)-carbamoyl]amino]-N-methyl-N-(1-pyridin-4-yl-piperidin-4-yl)-5,6,7,8-tetrahydro-naphthalene-2-carboxylic acid amide], which inhibition at 10 µM is on record?
A: The inhibition at 10 µM was 106%.

Q: Which inhibition at 10 µM does the source give for `CN(C(=O)c1ccc2c(c1)C(NC(=O)Nc1cc(Cl)ccc1Cl)CCC2)C1CCN(c2ccncc2)CC1` (stereo not shown) [CC_H-259, 8-[[(2,5-Dichloro-phenyl)-carbamoyl]amino]-N-methyl-N-(1-pyridin-4-yl-piperidin-4-yl)-5,6,7,8-tetrahydro-naphthalene-2-carboxylic acid amide] here?
A: The inhibition at 10 µM was 100%.

Q: Which inhibition at 10 µM does the source give for `CN(C(=O)c1ccc2c(c1)C(NC(=O)Nc1cc(Cl)cc(Cl)c1)CCC2)C1CCN(c2ccncc2)CC1` (stereo not shown) [CC_H-260, 8-[[(3,5-Dichloro-phenyl)-carbamoyl]amino]-N-methyl-N-(1-pyridin-4-yl-piperidin-4-yl)-5,6,7,8-tetrahydro-naphthalene-2-carboxylic acid amide] here?
A: Its inhibition at 10 µM is 61%.

Q: How did the inhibition at 10 µM turn out when `CN(C(=O)c1ccc2c(c1)C(NC(=O)Nc1cc(C(F)(F)F)ccc1Cl)CCC2)C1CCN(c2ccncc2)CC1` (stereo not shown) [CC_H-261, 8-[[[2-Chloro-5-(trifluoromethyl)-phenyl]-carbamoyl]amino]-N-methyl-N-(1-pyridin-4-yl-piperidin-4-yl)-5,6,7,8-tetrahydro-naphthalene-2-carboxylic acid amide] was run?
A: Its inhibition at 10 µM is 103%.

Q: `CN(C(=O)c1ccc2c(c1)C(NC(=O)Nc1ccc(Cl)cc1Cl)CCC2)C1CCN(c2ccncc2)CC1` (stereo not shown) [CC_H-262, 8-[[(2,4-Dichlorophenyl)-carbamoyl]amino]-N-methyl-N-(1-pyridin-4-yl-piperidin-4-yl)-5,6,7,8-tetrahydro-naphthalene-2-carboxylic acid amide] was tested. Which inhibition at 10 µM did it give?
A: Its inhibition at 10 µM is 82%.

Q: With `CN(C(=O)c1ccc2c(c1)C(NC(=O)Nc1ccc(F)c(Cl)c1)CCC2)C1CCN(c2ccncc2)CC1` (stereo not shown) [CC_H-265, 8-[[(3-Chloro-4-fluoro-phenyl)-carbamoyl]amino]-N-methyl-N-(1-pyridin-4-yl-piperidin-4-yl)-5,6,7,8-tetrahydro-naphthalene-2-carboxylic acid amide] as the molecule, how does the inhibition at 10 µM read?
A: Its inhibition at 10 µM is 105%.

Q: For `Cc1ccc(NC(=O)NC2CCCc3ccc(C(=O)N(C)C4CCN(c5ccncc5)CC4)cc32)c(C)c1` (stereo not shown) [CC_H-266, 8-[[(2,4-Dimethyl-phenyl)-carbamoyl]amino]-N-methyl-N-(1-pyridin-4-yl-piperidin-4-yl)-5,6,7,8-tetrahydro-naphthalene-2-carboxylic acid amide], which inhibition at 10 µM is on record?
A: The inhibition at 10 µM was 63%.

Q: `CN(C(=O)NC1CCCc2ccc(C(=O)N(C)C3CCN(c4ccncc4)CC3)cc21)c1ccccc1Cl` (stereo not shown) [CC_H-268, 8-[[(2-Chlorophenyl)-methyl-carbamoyl]amino]-N-methyl-N-(1-pyridin-4-yl-piperidin-4-yl)-5,6,7,8-tetrahydro-naphthalene-2-carboxylic acid amide] was tested. Which inhibition at 10 µM did it give?
A: Its inhibition at 10 µM is 110%.
